Measurements as given in PubChem BioAssay (NCI).
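Interpolation was linear, between the two tested concentrations surrounding the appropriate level; five concentrations were tested over 48 hours in 96-well plates. TGI: total growth inhibition.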

Tests used:
Experiment in all cases: inhibition of tumour cell growth, NCI panel, 48 h
NCI-H226 lung = system: NCI-H226 lung
UACC-257 melanoma = system: UACC-257 melanoma
HOP-62 NSCLC = system: HOP-62 NSCLC
CCRF-CEM leukemia = system: CCRF-CEM leukemia
RPMI-8226 leukemia = system: RPMI-8226 leukemia
NCI-H460 lung = system: NCI-H460 lung
MOLT-4 leukemia = system: MOLT-4 leukemia
HCC-2998 colon = system: HCC-2998 colon
SK-MEL-5 melanoma = system: SK-MEL-5 melanoma
SW-620 colon = system: SW-620 colon
A549 NSCLC = system: A549 NSCLC
SF-295 CNS = system: SF-295 CNS
SN12C renal = system: SN12C renal
HCT-116 colon = system: HCT-116 colon
HCT-15 colon = system: HCT-15 colon
LOX IMVI melanoma = system: LOX IMVI melanoma
PC-3 prostate = system: PC-3 prostate
MDA-MB-435 = system: MDA-MB-435
BT-549 breast = system: BT-549 breast
MCF7 breast = system: MCF7 breast

SMILES	TGI (NCI-H226 lung) [µM]	TGI (UACC-257 melanoma) [µM]	TGI (HOP-62 NSCLC) [µM]	TGI (CCRF-CEM leukemia) [µM]	TGI (RPMI-8226 leukemia) [µM]	TGI (NCI-H460 lung) [µM]	TGI (MOLT-4 leukemia) [µM]	TGI (HCC-2998 colon) [µM]	TGI (SK-MEL-5 melanoma) [µM]	TGI (SW-620 colon) [µM]	TGI (A549 NSCLC) [µM]	TGI (SF-295 CNS) [µM]	TGI (SN12C renal) [µM]	TGI (HCT-116 colon) [µM]	TGI (HCT-15 colon) [µM]	TGI (LOX IMVI melanoma) [µM]	TGI (PC-3 prostate) [µM]	TGI (MDA-MB-435) [µM]	TGI (BT-549 breast) [µM]	TGI (MCF7 breast) [µM]
COC(=O)CC(C(C(=O)OC)C(=O)OC)N1C(=O)OCC1c1ccccc1 (stereo not drawn)	> 100	> 100	> 100	> 100	> 100	> 100	> 100	> 100	> 100	> 100	> 100	> 100	> 100	> 100	> 100	> 100	–	–	–	–
CC(C)(C)c1ccc2c(c1)CNCCNCc1cc(C(C)(C)C)ccc1OCC1(CO2)COc2ccc(C(C)(C)C)cc2CNCCNCc2cc(C(C)(C)C)ccc2OC1	2.26	3	2.66	0.68	4.2	0.609	0.504	0.786	3.37	3.56	–	1.97	–	2.99	2.17	> 100	2.93	1	–	–
NC(C(F)(F)F)(C(F)(F)F)P(=O)(Cc1ccccc1)Cc1ccccc1	–	> 100	> 100	> 100	> 100	> 100	> 100	> 100	> 100	> 100	> 100	> 100	> 100	> 100	> 100	> 100	> 100	> 100	> 100	> 100
O=c1[nH]n2c(=O)cc[nH]c2c1-c1nnns1	> 100	–	> 100	> 100	> 100	> 100	> 100	> 100	> 100	> 100	> 100	> 100	> 100	> 100	> 100	> 100	–	–	–	–
CN1C(=O)N(c2ccccc2)C2(CCN(CC3COc4ccccc4O3)CC2)C1=O (stereo not drawn)	> 100	> 100	> 100	> 100	> 100	> 100	> 100	> 100	> 100	36.4	> 100	> 100	> 100	> 100	> 100	> 100	> 100	> 100	–	> 100
COc1ccc(C(C#N)NNC(=O)c2ccccc2O)cc1OC (stereo not drawn)	22.4	> 100	> 100	> 100	> 100	> 100	> 100	–	46.9	> 100	> 100	> 100	> 100	> 100	> 100	59.3	–	–	–	–
c1ccc(C2C3=C(Nc4ncnn42)c2ccccc2C3)cc1 (stereo not drawn)	–	> 100	> 100	> 100	> 100	> 100	> 100	> 100	> 100	17.4	> 100	> 100	> 100	> 100	> 100	73.2	–	–	–	–
CCOC(=O)CNC(=O)C(CSCc1ccc(Br)cc1)NC(=O)CCC(N)C(=O)OCC (stereo not drawn)	–	> 50	> 50	> 50	> 50	> 50	> 50	> 50	> 50	> 50	> 50	> 50	> 50	> 50	> 50	–	> 50	> 50	> 50	> 50
CC[C@]1(Cc2ccc(OC)c(OC)c2)CN(S(=O)(=O)c2ccc(C)cc2)C[C@@H]1OC(C)=O	> 100	> 100	> 100	> 100	> 100	> 100	> 100	> 100	> 100	> 100	> 100	> 100	–	–	> 100	> 100	> 100	> 100	–	> 100
Cc1cc(N(CCC#N)CCC#N)ccc1/C=N/NC(=O)c1cc(Cl)ccc1O	> 100	> 100	> 100	> 100	–	> 100	> 100	> 100	> 100	–	> 100	> 100	> 100	> 100	> 100	–	> 100	> 100	–	> 100
CC(CN1c2ccccc2Sc2ccccc21)N(C)C (stereo not drawn)	34.5	39.4	28.5	40.1	–	36	40.7	37.5	35.6	45	35.7	28.9	29.1	28.9	35.1	35.9	31.2	31.2	–	42.8
CN(C)CCCOC(=O)C(c1ccccc1)C1(O)CCSCC1 (stereo not drawn)	> 100	> 100	> 100	> 100	> 100	> 100	> 100	> 100	> 100	> 100	> 100	> 100	> 100	> 100	> 100	> 100	> 100	> 100	–	> 100
CC(C)(C)C1=C(Br)C(Br)(C(C)(C)C)OP1(=O)c1ccccc1 (stereo not drawn)	–	> 100	> 100	–	–	> 100	–	> 100	> 100	> 100	> 100	> 100	> 100	> 100	> 100	> 100	> 100	> 100	–	> 100
